Our source for the % of control, % of inhibition and IC50 values is ChEMBL document CHEMBL5465560, “Selectivity Literature for EUbOPEN Chemogenomic Library” (2024).

The target of assay [1] is T1, Muscle, skeletal receptor tyrosine-protein kinase (Homo sapiens) (UniProt O15146).
T1 sequence (whole entry): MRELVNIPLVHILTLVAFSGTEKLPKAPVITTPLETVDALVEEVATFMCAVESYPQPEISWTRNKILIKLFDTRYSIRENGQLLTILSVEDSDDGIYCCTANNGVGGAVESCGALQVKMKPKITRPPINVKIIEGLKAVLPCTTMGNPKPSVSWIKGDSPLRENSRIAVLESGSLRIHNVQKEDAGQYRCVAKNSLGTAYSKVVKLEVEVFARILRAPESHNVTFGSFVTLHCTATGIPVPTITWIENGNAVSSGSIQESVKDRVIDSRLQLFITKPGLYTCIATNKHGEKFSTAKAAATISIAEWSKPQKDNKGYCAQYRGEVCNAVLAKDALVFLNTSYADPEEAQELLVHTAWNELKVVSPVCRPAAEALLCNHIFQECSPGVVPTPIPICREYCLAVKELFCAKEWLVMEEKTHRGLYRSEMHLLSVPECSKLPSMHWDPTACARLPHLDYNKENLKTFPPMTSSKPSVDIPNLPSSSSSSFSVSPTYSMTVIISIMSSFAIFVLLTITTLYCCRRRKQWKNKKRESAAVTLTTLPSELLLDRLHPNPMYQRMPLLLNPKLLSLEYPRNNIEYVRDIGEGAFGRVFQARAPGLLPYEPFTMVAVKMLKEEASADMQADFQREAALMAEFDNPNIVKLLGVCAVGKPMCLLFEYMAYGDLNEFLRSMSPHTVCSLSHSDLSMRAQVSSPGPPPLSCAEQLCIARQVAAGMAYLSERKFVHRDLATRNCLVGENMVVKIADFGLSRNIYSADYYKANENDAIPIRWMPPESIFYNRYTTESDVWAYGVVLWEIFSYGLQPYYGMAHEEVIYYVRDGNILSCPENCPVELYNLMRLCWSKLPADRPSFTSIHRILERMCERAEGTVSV
In words: Selectivity interaction (KinomeScan (DiscoverX)) EUB0000695a MUSK. To be noted: at 100 nM.

The target in assay [2] is T2, Serine/threonine-protein kinase Sgk1 (Homo sapiens) (UniProt O00141).
T2 sequence (whole entry): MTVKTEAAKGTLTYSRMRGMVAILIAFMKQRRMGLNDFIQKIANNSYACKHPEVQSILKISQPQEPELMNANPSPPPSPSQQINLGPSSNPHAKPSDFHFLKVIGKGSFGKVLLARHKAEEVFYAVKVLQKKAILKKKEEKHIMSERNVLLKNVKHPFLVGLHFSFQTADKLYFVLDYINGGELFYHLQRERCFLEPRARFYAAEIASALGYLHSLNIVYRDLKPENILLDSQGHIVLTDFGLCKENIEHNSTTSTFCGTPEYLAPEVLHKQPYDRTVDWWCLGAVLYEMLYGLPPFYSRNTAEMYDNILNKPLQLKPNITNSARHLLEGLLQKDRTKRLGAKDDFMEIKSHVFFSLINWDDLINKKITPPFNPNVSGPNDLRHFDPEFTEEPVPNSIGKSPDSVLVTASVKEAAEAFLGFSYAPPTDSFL
In words: Selectivity interaction (Kinase screening (Nanosyn)) EUB0000604a SGK1.

Assay [3] has as its target T3, Inhibitor of nuclear factor kappa-B kinase subunit beta (Homo sapiens) (UniProt O14920).
T3 sequence (whole entry): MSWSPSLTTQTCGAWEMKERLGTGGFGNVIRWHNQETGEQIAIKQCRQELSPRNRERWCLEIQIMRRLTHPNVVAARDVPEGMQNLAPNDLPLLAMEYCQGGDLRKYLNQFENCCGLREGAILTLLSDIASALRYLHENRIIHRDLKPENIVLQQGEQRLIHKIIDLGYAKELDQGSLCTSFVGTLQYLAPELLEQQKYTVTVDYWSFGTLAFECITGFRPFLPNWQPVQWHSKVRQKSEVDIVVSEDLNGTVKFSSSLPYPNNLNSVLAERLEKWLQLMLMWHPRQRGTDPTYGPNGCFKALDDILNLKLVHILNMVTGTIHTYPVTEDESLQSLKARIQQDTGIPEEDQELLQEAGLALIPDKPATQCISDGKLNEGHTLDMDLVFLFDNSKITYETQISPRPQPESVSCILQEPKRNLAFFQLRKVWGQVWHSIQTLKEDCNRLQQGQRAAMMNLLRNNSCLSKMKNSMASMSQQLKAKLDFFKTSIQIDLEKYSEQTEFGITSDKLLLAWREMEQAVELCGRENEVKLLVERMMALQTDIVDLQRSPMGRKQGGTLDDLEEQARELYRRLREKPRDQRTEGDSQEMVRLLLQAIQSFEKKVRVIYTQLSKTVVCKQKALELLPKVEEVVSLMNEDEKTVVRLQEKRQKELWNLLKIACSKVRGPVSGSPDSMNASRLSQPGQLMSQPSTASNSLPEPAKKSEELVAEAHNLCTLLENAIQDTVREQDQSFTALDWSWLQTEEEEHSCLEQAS

Assay [4] concerns the target T4, STE20-related kinase adapter protein alpha (Homo sapiens) (UniProt Q7RTN6).
T4 sequence (whole entry): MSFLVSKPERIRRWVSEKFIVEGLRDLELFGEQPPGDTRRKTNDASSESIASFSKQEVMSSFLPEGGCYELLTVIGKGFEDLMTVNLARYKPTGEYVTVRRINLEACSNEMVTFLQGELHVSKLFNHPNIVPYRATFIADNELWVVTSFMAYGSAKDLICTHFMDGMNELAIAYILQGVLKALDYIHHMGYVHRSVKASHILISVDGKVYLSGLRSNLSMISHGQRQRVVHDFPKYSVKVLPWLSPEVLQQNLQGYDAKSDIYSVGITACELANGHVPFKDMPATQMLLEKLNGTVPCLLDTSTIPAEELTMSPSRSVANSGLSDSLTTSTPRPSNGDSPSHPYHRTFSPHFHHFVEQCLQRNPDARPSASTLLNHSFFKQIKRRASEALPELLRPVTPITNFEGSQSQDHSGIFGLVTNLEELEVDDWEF
In words: Selectivity interaction (ActivX KiNativ screen (kinase selectivity in THP-1 cell lysates)) EUB0000639a STRADA. To be noted: lysate. The assay is classed as subcellular.

Assay [5] deals with cAMP-dependent protein kinase catalytic subunit alpha (Homo sapiens, UniProt P17612). As to the kind of experiment: Selectivity interaction (Upstate Kinase Profiler service (Millipore)) EUB0000056c PRKACA. The settings on record: at 1 µM.
The target in assay [6] is 5-hydroxytryptamine receptor 1A (Homo sapiens, UniProt P08908). In words: Selectivity interaction (Serotonin 5HT1A Calcium flux assay, agonist and antagonist mode ) EUB0000877a HTR1A. For orientation: Calcium flux is commonly read through the fluorescence of an indicator in the cells.
Sequence of 5-hydroxytryptamine receptor 1A (P08908 whole entry): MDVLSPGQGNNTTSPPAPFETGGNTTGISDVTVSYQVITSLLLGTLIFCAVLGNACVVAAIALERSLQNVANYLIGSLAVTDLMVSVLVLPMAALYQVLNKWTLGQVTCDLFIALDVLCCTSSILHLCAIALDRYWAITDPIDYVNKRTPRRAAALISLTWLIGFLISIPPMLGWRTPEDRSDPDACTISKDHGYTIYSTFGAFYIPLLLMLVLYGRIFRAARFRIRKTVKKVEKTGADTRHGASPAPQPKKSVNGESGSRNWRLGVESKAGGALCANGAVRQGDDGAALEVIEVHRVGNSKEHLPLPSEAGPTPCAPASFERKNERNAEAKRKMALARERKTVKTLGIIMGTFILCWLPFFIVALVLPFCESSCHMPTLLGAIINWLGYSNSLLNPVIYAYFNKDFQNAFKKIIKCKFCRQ

Broadly, the IC50 is the concentration that gives 50% inhibition.

In assay [1], `Cc1cc(F)c(C(=O)Nc2cccc(-c3nncn3C(C)C)n2)cc1-n1cnc(C2CC2)c1` displayed a % of control of 91%.

Consider `Cc1cnc(Nc2ccc(F)cc2Cl)nc1-c1c[nH]c(C(=O)N[C@H](CO)c2cccc(Cl)c2)c1`, for which the % of inhibition worked out at 15% in assay [2] and 8% in assay [3].

As to `CC[C@@H]1[C@H](F)C(=O)N[C@@H]1COc1nccc2cc(C(N)=O)c(OC)cc12` [ZIMLOVISERTIB], the % of inhibition was -13.1% in assay [4] (at 0.01 µM); 4.6% in assay [4] (at 0.04 µM); -11.6% in assay [4] (at 0.2 µM); 5.4% in assay [4] (at 1 µM); 3.6% in assay [4] (at 5 µM).

In the case of `Cc1ccc(-c2ccc3c(ccc4sc5c(c43)NC[C@@H](C)NC5=O)n2)cn1`, the % of inhibition in assay [5] was determined as 14%.

As for `CCC(=O)N1CC[C@H](Nc2ncnc3c2CN(c2cnc(OC)c(C(F)(F)F)c2)CC3)C1` [LENIOLISIB], in assay [6], the IC50 is above 30 µM.
